The values that follow come from patent US9604987B2, “Synthesis of autophagy inducing compound and the uses thereof” (Hong Kong Baptist University, priority 2012, dated 2017).

In test [1] the test system is rat primary cortical neurons. Description: LC3 immunoblot in primary cultured rat cortical neurons. Type of test: cell-based. The note with it: different concentrations, 24 hours. Here is the method:
To further confirm the pro-autophagic effect of CB6 and CB8 on primary neurons, rat primary cortical neurons isolated from E17 rats are used in the study. The primary neurons are treated with different concentrations of CB6 and CB8 respectively for 24 hours, and autophagic markers LC3 is detected by immunoblot analysis.
The E16 pregnant rat was anesthetized by intraperitoneal injection with 3% chloral hydrate in normal saline (1 ml/100 g bdw). The uterus containing embryos were dissected and transferred to a Petri dish, and then the embryos were collected on a new petri dish containing ice cold PBS. The brains of the embryos were then dissected under stereoscope and the cortices of the brains were placed in a Petri dish containing ice cold 10% FBS DMEM. The meninges of the cortices were removed carefully and then transferred to a 15 ml tube. Total 5 ml of digestion solution (1.25% Trypsin diluted with DMEM/F12 medium) were added into the tube containing meninges-free cortices and then incubated at 37° C. for 15 min. The digestion was stopped by adding 10% FBS DMEM/F12 supplemented with 10 μg/ml DNase (Sigma, DN25). […] The viable cells without staining with typan blue were then counted under microscope. […]
For orientation: Immunoblotting shows a protein as a band on a membrane.

Another test relates to PC12 cells. Description: Western blot of autophagy marker LC3-II in PC12 cells. The test is classed as cell-based, rat. The note with it: PC12, 0-25 μM, 24 hours. The procedure:
(§1) Native and denatured PAGE and Western blotting analysis. Samples to be run under denaturing conditions were lysed with RIPA lysis buffer (150 mM NaCl, 50 mM Tris-HCl, 0.35% sodium deoxycholate, 1 mM EDTA, 1% NP40, 1 mM PMSF, 5 μg/ml aprotinin, 5 μg/ml leupeptin). Samples for native gels were lysed with detergent-free lysis buffer (50 mM Tris/HCl pH 7.4, 175 mM NaCl, 5 mM EDTA pH 8.0, 1 mM PMSF, 5 μg/ml aprotinin, 5 μg/ml leupeptin), and sheared 5 times through a 28-gauge needle followed by 2 times of sonication for 5 seconds according to previously described protocol. For denaturing, SDS-PAGE was performed using Tris-Glycine SDS running buffer and SDS sample buffer, and for native conditions, native-PAGE was run with detergent-free Tris-Glycine running buffer (BN2007, Invitrogen) and 4× native sample buffer (BN2003, Invitrogen) on a pre-casted native PAGE gel (BN1002BOX, Invitrogen). The proteins on the gels were then transferred to PVDF membrane (RPN303F, GE Healthcare) and processed for immunoblotting. Membranes were blocked with 5% non-fat milk and probed with the appropriate primary and secondary antibodies. The desired bands were visualized using the ECL kit (32106, Pierce). The band density was quantified using the ImageJ program and normalized to that of the control group. […]

The subject of another test is α-syn oligomers. Description: BiFC-based cell model of α-syn oligomer clearance (flow cytometry). Conditions: 25 μM, 24 hours. Here is the method: Second, the effect of Cory B on α-syn oligomers clearance is tested using a bimolecular fluorescence complementation (BiFC)-based cell model which enables visualization of α-syn oligomers. Two non-fluorescent fragments of GFP, GFP-N terminal fraction and GFP-C terminal fraction, are fused with α-syn protein; interaction of the two fragments reconstitutes the fluorophore (FIG. 5G). The presence of fluorescence signal indicates the formation of α-syn oligomers within cells. Mock transfected cells are used as blanks to gate the fluorescence-positive cells and signals stronger than 10^1 RFU are considered as positive α-syn oligomers formation. Cells are treated with 25 μM Cory B and/or 5 mM 3-MA for 24 hours and harvested for flow cytometry analysis.
A general note: In flow cytometry, cells or beads pass a laser one at a time.

Another test deals with SH-SY5Y cells. Kind of test: Western blot of autophagy marker LC3-II in SH-SY5Y cells. Type of test: cell-based, human. The note with it: 0-25 μM, 24 hours. The procedure:
as §1

Regarding `CCCN1C(=O)[C@]2(CCN3C[C@@H](CC)[C@@H](/C(=C\OC)C(=O)OC)C[C@H]32)c2ccccc21` [CB6], in test [1], the “autophagy (LC3 immunoblot)” value is reported as “induced autophagy”.
Regarding `CC[C@@H]1CN2CC[C@]3(C(=O)Nc4ccccc43)C2C[C@@H]1C(=COC)C(=O)OC` (some centres unmarked) [Cory B, Corynoxine B], the LC3-II levels entry with PC12 cells and in the test with SH-SY5Y cells was “increases levels of LC3-II” throughout. Besides, the “degradation of α-syn oligomers (fluorescence intensity)” value with α-syn oligomers is reported as “promotes degradation of α-syn oligomers”.
Consider `C=CCN1C(=O)[C@]2(CCN3C[C@@H](CC)[C@@H](/C(=C\OC)C(=O)OC)C[C@H]32)c2ccccc21` [CB8], for which the “autophagy (LC3 immunoblot)” value in test [1] is on record as “induced autophagy”.
